Tested on: PC-3 cells
Experiment: Wound healing (scratch) assay
Type: cell-based
Conditions: PC3, 50 uM, 48 h
Experimental: PC-3 cells were treated with 1, 10, 50 μM C3 or DMSO control after scratch formation and images were recorded using a brightfield microscope as described in the methods. […] Brightfield images were quantified using the t-scratch program and represented as % scratch closure after 48 hours of migration compared to a 0 hour control (n=9, mean±SEM). A one-way ANOVA test was used for statistical analysis (p<0.05).
Wound Healing Assay. PC-3 cells were seeded in 6 well plates at 3×10^5 cells per well in complete media until the cells reached confluency. Three horizontal and three vertical scratches were made in the confluent monolayers using a standard 200 μL pipette tip and cellular debris were removed by washing with 1×DPBS three times. 1×RPMI-1640 supplemented with C3 or DMSO was added and cells were incubated for 48 hours as described previously. […] Images were uploaded and analyzed for scratch geometry using the tscratch program (96). First, global thresholding was performed, then individual images were manually inspected for single image threshold adjustment and scratch geometries were quantified. […] The samples were analyzed using the Dionex UltiMate 3000 RSLC Nano System coupled to the Q Exactive™ HF Hybrid Quadrupole-Orbitrap MS (Thermo Scientific). […] Label free quantitation (LFQ) was performed using a minimum ratio count of 2 with fast LFQ. […]

## O=C(c1cc(F)cc2c1OCOC2)N1CCN(C2c3ccccc3-c3ccccc32)CC1 [Compound C3, [4-(9h-fluoren-9-yl)piperazino](6-fluoro-4h-1,3-benzodioxin-8-yl)methanone]
  prevention of wound closure: ~70%
